One data set in a line: in vivo. As to conditions: rat, po.
The format of data set [1] is physicochemical. An excerpt:
The manufacture of an amorphous solid dispersion containing VX-950 presented several challenges. […] Therefore, an appropriate solvent or solvent mixture is crucial to optimizing the processing and production of a solid dispersion.

Data set [2] can be described thus: Chemical reactivity of VX-950 with alcohol solvents. Format: physicochemical. As to conditions: MeOH, EtOH, iPrOH. An excerpt: The manufacture of an amorphous solid dispersion containing VX-950 presented several challenges. […] Therefore, an appropriate solvent or solvent mixture is crucial to optimizing the processing and production of a solid dispersion. In preferred processes, the solvent includes a volatile solvent. In some embodiments, the solvent includes a mixture of volatile solvents. Preferable solvents include those that can dissolve both VX-950 and the polymers. Suitable solvents include those described above, for example, methylene chloride, acetone, etc. In more preferred processes, the solvent is a mixture of methylene chloride and acetone. The percent weight ratio of methylene chloride:acetone can be for example, about 100:0, about 90:10, about 80:20, about 70:30, about 60:40, and is preferably about 80:20 or about 70:30. The solvent or solvent mixture can also contain a non volatile solvent, such as glacial acetic acid. The organic acid or polar solvent solvent can be, e.g., up to about 5%, up to about 10%, or up to about 15% by weight of the solvent mixture. For example, a solvent mixture can contain a percent weight ratio of methylene chloride:acetone:glacial acetic acid of about 67:28:5 or 63:27:10. […] Such a solvent should not contain an OH group or a similarly reactive moiety. In these processes, therefore, a preferred solvent is other than an alcohol.

As usually defined, the bioavailability is dose-corrected exposure relative to a reference, in per cent. For `CCC[C@H](NC(=O)[C@@H]1[C@H]2CCC[C@H]2CN1C(=O)[C@@H](NC(=O)[C@@H](NC(=O)c1cnccn1)C1CCCCC1)C(C)(C)C)C(=O)C(=O)NC1CC1` [VX-950], the bioavailability in the data set “in vivo” is less than 0.5%. In data set [1], the aqueous solubility entry is reported as “virtually undetectable”, the “pH dependence of aqueous solubility” value is “not pH-dependent”, the solubility in water entry is given as “highly insoluble” and the “solubility in water or most other conventional organic solvents” value is on record as “does not dissolve to a significant amount”. Besides, the “chemical reactivity with alcohols” value in data set [2] was “has shown chemical reactivity with some alcohols”.

For the origin of these results see patent US20100267744A1, “Pharmaceutical Compositions” (Vertex Pharmaceuticals Incorporated, priority 2006, published 2010).
